Read-outs that look alike come from different tables or passages of the source.
Assays:
[1] = test system: Pseudomonas syringae pv maculicola ES4326 (Psm lux); type: in vivo
[2] = test system: Pseudomonas syringae pv. tabaci (DSM 1856); test: Tobacco (Nicotiana tabacum cv Xanthi) resistance to Pseudomonas tabaci after soil-applied Pip/NHP; details: for disease symptoms (yellowing and wilting) of infiltrated 1° leaves: tobacco 4-leaf stage, 40 ml of 1 mM (40 μmol) via soil 1 d prior to inoculation, 48 h after infection
Procedure: Plant pots with tobacco at the 4-leaf stage (BBCH growth stage 1004) were supplied with either 40 ml of H2O (mock-treatment; left) or 40 ml of 1 mM Pip or NHP (=40 μmol) 1 d prior to inoculation with a suspension (OD600=0.005, O/N-culture grown at 18° C.) of Pseudomonas tabaci via pressure infiltration. […] Infiltrated 1° leaves from representative plants were cut and photographed 48 h after the initial infection.

[3] = test system: Hyaloperonospora arabidopsidis (Hpa) isolate Noco2; test: Arabidopsis thaliana resistance to Hpa after Pip/NHP pre-treatment (symptoms, Trypan blue microscopy); type: in vivo; details: for symptomology of leaves (photographs): 7 days after inoculation; for disease development in the SA-deficient mutant: sid2 mutant
[4] = 1° leaves pressure-infiltrated with 1 mM NHP 24 h before inoculation

O=C(O)C1CCCCN1O (stereo not shown) [NHP, 1-hydroxypiperidine-2-carboxylic acid]
reduction of bacterial numbers, 2° leaves inoculated (systemic) [1, 4]: more than 15 fold | reduction of bacterial numbers, Psm lux infiltrated in the pre-treated 1° leaves (local) [1, 4]: about 8 fold | Resistance effect after NHP pre-treatment ([1]; Arabidopsis thaliana, Pseudomonas syringae): Yes | attenuation of Psm lux growth ([1]; Col-0, ald1, and fmo1 (all genotypes), 10 μmol via soil 1 d before inoculation, 60 hpi): at least one order of magnitude | chlorotic symptom development ([1]; Col-0, ald1, and fmo1, 10 μmol via soil, 72 hpi): lack of the chlorotic symptom development | reduction in bacterial numbers compared to mock-treated plants ([1]; Col-0, 10 μmol NHP via soil 1 day before infection, 54 h post inoculation): about 9 fold | reduction in bacterial numbers compared to mock-treated plants ([1]; Col-0, 10 μmol NHP via soil 3 days before infection, 54 h post inoculation): about 6 fold | reduction in bacterial numbers compared to mock-treated plants ([1]; Col-0, 10 μmol NHP via soil 7 days before infection, 54 h post inoculation): about 3 fold | further reduction of bacterial growth compared to plants treated with 10 μmol of NHP ([1]; Col-0, 100 μmol NHP per pot via soil, 54 h post inoculation): 2 fold | reduction of bacterial numbers compared to control plants ([1]; Col-0, 0.1 mM NHP (1 μmol/pot) via soil 24 h prior to Psm lux, 54 h post inoculation): about 2 fold | reduction of bacterial numbers compared to mock-treated plants ([1]; Col-0, 10 mM NHP (100 μmol per pot) via soil 24 h prior to Psm lux, 54 h post inoculation): about 20 fold | lower levels of bacteria in leaves compared to control plants ([1]; Col-0, 10 ml of 1 mM NHP (10 μmol per pot) via soil 24 h prior to Psm lux, 54 h post inoculation): about 11 fold | disease symptoms of leaves ([1]; Col-0, 10 ml of 1 mM NHP via soil 24 h prior to Psm lux): largely symptom-free | reduction of bacterial numbers in Psm lux-inoculated 1° leaves ([1]; Col-0, foliar spray of 1 mM NHP with 0.005% Silwet 24 h before inoculation, 54 h post inoculation): about 12 fold | difference in bacterial numbers between control and treated plants ([1]; Col-0 wild-type (experiment with sid2), 10 μmol via soil, 60 hpi): ten-fold difference | bacterial numbers in leaves lower than those of naive plants ([1]; SA-deficient sid2 mutant, 10 μmol via soil, 60 hpi): about 2.5 fold | Resistance effect after NHP pre-treatment ([2]; Nicotiana tabacum cv. Xanthi, Pseudomonas syringae pv. tabaci (DSM 1856)): Yes | disease symptoms (yellowing and wilting) of infiltrated 1° leaves [2]: almost absent | Resistance effect after NHP pre-treatment ([3]; Arabidopsis thaliana, Hyaloperonospora arabidopsidis): Yes | symptomology of leaves (photographs) ([3]; Col-0, ald1, and fmo1, 10 μmol via soil): completely symptom-free | development of oospores ([3]; Col-0, 10 μmol via soil, 7 dpi): completely inhibited | examined leaves that fully prohibited the formation of intercellular hyphae ([3]; Col-0, 10 μmol via soil, 7 dpi): About 70% | macroscopic mildew symptoms ([3]; Col-0, 10 μmol via soil, 7 dpi): completely free of mildew symptoms | occurrence/development of conidiophores on leaves ([3]; Col-0, 10 μmol via soil, 7 dpi): completely inhibited | disease development in the SA-deficient mutant ([3]; 10 μmol via soil): not able to fully prevent disease development

O=C(O)[C@@H]1CCCCN1 [Pip, (S)-piperidine-2-carboxylic acid]
bacterial multiplication in leaves of treated compared with control plants ([1]; Col-0 and ald1, 10 μmol via soil 1 d before Psm lux, 60 hpi): ten-fold lower | chlorotic leaf symptoms ([1]; Col-0 and ald1, 10 μmol via soil, 72 hpi): suppression of the development of chlorotic leaf symptoms | disease symptoms (yellowing and wilting) of infiltrated 1° leaves [2]: severely reduced | average length of intercellular hyphae growing inside leaves ([3]; Col-0, 10 μmol via soil 24 h before Hpa, 7 dpi): about 50 mm cm^−2 | development of oospores ([3]; Col-0, 10 μmol via soil, 7 dpi): fully prevented | intercellular hyphae closely encased by dead host cells (trailing necrosis) ([3]; Col-0, 10 μmol via soil, 7 dpi): about 60% | length of intercellular hyphae as share of the value for non-pretreated Col-0 plants ([3]; Col-0, 10 μmol via soil, 7 dpi): ~10% | macroscopic mildew symptoms ([3]; Col-0, 10 μmol via soil, 7 dpi): largely symptom-free | occurrence/development of conidiophores on leaves ([3]; Col-0, 10 μmol via soil, 7 dpi): greatly diminished | symptomology of leaves (photographs) ([3]; Col-0 and ald1, 10 μmol via soil): only sporadically show small areas of visible mildew symptoms | effect on the resistance of fmo1 to Hpa ([3]; fmo1 mutant, 10 μmol via soil): no effect | disease development in the SA-deficient mutant ([3]; 10 μmol via soil): not able to fully prevent disease development

From patent publication US12137687B2, “Method for inducing acquired resistance in a plant” (HEINRICH HEINE UNIVERSITAET DUESSELDORF, priority 2017, dated 2024)
